Data published in patent US6096930A, “Herbicidal cyclohexane-1,3-dione derivatives and their preparation process” (Korea Research Institute of Chemical Technology, priority 1994, dated 2000).
Like-named read-outs stand apart in the source and are kept apart here.

Experiments:
Assay type in all cases: in vivo
ABUTH [1] = test: Herbicidal activity, upland test, pre-emergence
Experimental: (§1) The sterilized sandy loam soil is filled in test pot having a surface area of 348 cm^2 for upland test conditions or 115 cm^2 for paddy test species were planted in furrows.
(§2) For the pre-emergent tests, were sprayed on the soil one day after planting test compound in a mixture of acetone and 7 ml of the water containing up to 0.1% Tween 20.
(§3) The concentration of the test compound in solution was varied to give a range of application rates, generally 4.0 kg/ha and submultiples thereof. The pots were placed in a greenhouse and watered regularly at the soil surface for 21 days and herbicidal effects were visually rated by a percent control.
(§4) The herbicidal activity data were taken visually by percent control, wherein 0 signifies no herbicidal effect and 100 signifies complete kill.

DIGSA [2] = test: Herbicidal activity, upland test, pre-emergence
Experimental: as §1, §2, §3, §4

ECHOR [3] = test: Herbicidal activity, upland test, pre-emergence
Experimental: as §1, §2, §3, §4

GOSHI [4] = test: Herbicidal activity, upland test, pre-emergence
Experimental: as §1, §2, §3, §4

SOLNI [5] = test: Herbicidal activity, upland test, pre-emergence
Experimental: as §1, §2, §3, §4

ABUTH [6] = test: Herbicidal activity, upland test, post-emergence
Description: as §1
(§5) The pots for the post-emergent tests were placed in a greenhouse and watered for 9~14 days, then the foliage of test plants was sprayed with a solution of the test compound in a mixture of acetone and water containing a small amount of Tween 20.
(§6) After spraying the plants were kept for one day, then watered regularly for 14 to 21 days, and herbicidal activity data were recorded.
as §4

AESIN = test: Herbicidal activity, upland test, post-emergence
Description: as §1, §5, §6, §4

BROJA = test: Herbicidal activity, upland test, post-emergence
Description: as §1, §5, §6, §4

DIGSA [7] = test: Herbicidal activity, upland test, post-emergence
Description: as §1, §5, §6, §4

ECHOR [8] = test: Herbicidal activity, upland test, post-emergence
Description: as §1, §5, §6, §4

GLXMX = test: Herbicidal activity, upland test, post-emergence
Description: as §1, §5, §6, §4

GOSHI [9] = test: Herbicidal activity, upland test, post-emergence
Description: as §1, §5, §6, §4

ORYSA [10] = test: Herbicidal activity, upland test, post-emergence
Description: as §1, §5, §6, §4

PANDI = test: Herbicidal activity, upland test, post-emergence
Description: as §1, §5, §6, §4

SOLNI [11] = test: Herbicidal activity, upland test, post-emergence
Description: as §1, §5, §6, §4

SORBI = test: Herbicidal activity, upland test, post-emergence
Description: as §1, §5, §6, §4

TRZAW = test: Herbicidal activity, upland test, post-emergence
Description: as §1, §5, §6, §4

ZEAMX = test: Herbicidal activity, upland test, post-emergence
Description: as §1, §5, §6, §4

ECHOR [12] = test: Herbicidal activity for paddy test
How it was run: (§7)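 For paddy conditions, species grew in furrows within pots of sterilized sandy loam soil (115 cm^2 surface area), and efficacy was judged by eye as percent control, with 0 meaning no herbicidal effect and 100 meaning total kill.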

MOOVA = test: Herbicidal activity for paddy test
How it was run: as §7

ORYSA [13] = test: Herbicidal activity for paddy test; conditions: for plant injury at 2 g/ha: 0.002 kg/ha; for plant injury at 8 g/ha: 0.008 kg/ha; for plant injury at 31 g/ha: 0.031 kg/ha; for plant injury at 125 g/ha: 0.125 kg/ha; for plant injury at 500 g/ha: 0.500 kg/ha
How it was run: as §7

SAGPY = test: Herbicidal activity for paddy test
How it was run: as §7

SCPJU = test: Herbicidal activity for paddy test
How it was run: as §7

[14] = 3 Leaf, read-out: Herbicidal activity, ORYSA (3 Leaf)
[15] = seed, read-out: Herbicidal activity, ORYSA (seed)

SMILES: CCCC(=NOC)C1=C(O)CC(c2c(C)c(C)c3c(c2C)CC(C)(C)C3)CC1=O (stereo not drawn) [Compound 6]
- Herbicidal activity, ABUTH (ABUTH [1]; 0.016 kg/ha): 0 % inhibition
- Herbicidal activity, ABUTH (ABUTH [1]; 0.063 kg/ha): 0 % inhibition
- Herbicidal activity, ABUTH (ABUTH [1]; 1.000 kg/ha): 0 % inhibition
- Herbicidal activity, ABUTH (ABUTH [1]; 1.250 kg/ha): 0 % inhibition
- Herbicidal activity, DIGSA (DIGSA [2]; 0.016 kg/ha): 0 % inhibition
- Herbicidal activity, DIGSA (DIGSA [2]; 0.063 kg/ha): 0 % inhibition
- Herbicidal activity, DIGSA (DIGSA [2]; 1.000 kg/ha): 100 % inhibition
- Herbicidal activity, DIGSA (DIGSA [2]; 1.250 kg/ha): 60 % inhibition
- Herbicidal activity, ECHOR (ECHOR [3]; 0.016 kg/ha): 0 % inhibition
- Herbicidal activity, ECHOR (ECHOR [3]; 0.063 kg/ha): 0 % inhibition
- Herbicidal activity, ECHOR (ECHOR [3]; 1.000 kg/ha): 100 % inhibition
- Herbicidal activity, ECHOR (ECHOR [3]; 1.250 kg/ha): 50 % inhibition
- Herbicidal activity, GOSHI (GOSHI [4]; 0.016 kg/ha): 0 % inhibition
- Herbicidal activity, GOSHI (GOSHI [4]; 0.063 kg/ha): 0 % inhibition
- Herbicidal activity, GOSHI (GOSHI [4]; 1.000 kg/ha): 0 % inhibition
- Herbicidal activity, GOSHI (GOSHI [4]; 1.250 kg/ha): 0 % inhibition
- Herbicidal activity, SOLNI (SOLNI [5]; 0.016 kg/ha): 0 % inhibition
- Herbicidal activity, SOLNI (SOLNI [5]; 0.063 kg/ha): 0 % inhibition
- Herbicidal activity, SOLNI (SOLNI [5]; 1.000 kg/ha): 0 % inhibition
- Herbicidal activity, SOLNI (SOLNI [5]; 1.250 kg/ha): 0 % inhibition
- Herbicidal activity, ABUTH (ABUTH [6]; 0.016 kg/ha): 0 % inhibition
- Herbicidal activity, ABUTH (ABUTH [6]; 0.063 kg/ha): 0 % inhibition
- Herbicidal activity, ABUTH (ABUTH [6]; 1.000 kg/ha): 30 % inhibition
- Herbicidal activity, ABUTH (ABUTH [6]; 1.250 kg/ha): 0 % inhibition
- Herbicidal activity, AESIN (AESIN; 0.016 kg/ha): 0 % inhibition
- Herbicidal activity, AESIN (AESIN; 0.063 kg/ha): 0 % inhibition
- Herbicidal activity, AESIN (AESIN; 1.000 kg/ha): 20 % inhibition
- Herbicidal activity, AESIN (AESIN; 1.250 kg/ha): 0 % inhibition
- Herbicidal activity, BROJA (BROJA; 0.016 kg/ha): 0 % inhibition
- Herbicidal activity, BROJA (BROJA; 0.063 kg/ha): 30 % inhibition
- Herbicidal activity, BROJA (BROJA; 1.000 kg/ha): 100 % inhibition
- Herbicidal activity, BROJA (BROJA; 1.250 kg/ha): 70 % inhibition
- Herbicidal activity, DIGSA (DIGSA [7]; 0.016 kg/ha): 60 % inhibition
- Herbicidal activity, DIGSA (DIGSA [7]; 0.063 kg/ha): 100 % inhibition
- Herbicidal activity, DIGSA (DIGSA [7]; 1.000 kg/ha): 100 % inhibition
- Herbicidal activity, DIGSA (DIGSA [7]; 1.250 kg/ha): 100 % inhibition
- Herbicidal activity, ECHOR (ECHOR [8]; 0.016 kg/ha): 70 % inhibition
- Herbicidal activity, ECHOR (ECHOR [8]; 0.063 kg/ha): 100 % inhibition
- Herbicidal activity, ECHOR (ECHOR [8]; 1.000 kg/ha): 100 % inhibition
- Herbicidal activity, ECHOR (ECHOR [8]; 1.250 kg/ha): 100 % inhibition
- Herbicidal activity, GLXMX (GLXMX; 0.016 kg/ha): 0 % inhibition
- Herbicidal activity, GLXMX (GLXMX; 0.063 kg/ha): 0 % inhibition
- Herbicidal activity, GLXMX (GLXMX; 1.000 kg/ha): 60 % inhibition
- Herbicidal activity, GLXMX (GLXMX; 1.250 kg/ha): 20 % inhibition
- Herbicidal activity, GOSHI (GOSHI [9]; 0.016 kg/ha): 0 % inhibition
- Herbicidal activity, GOSHI (GOSHI [9]; 0.063 kg/ha): 30 % inhibition
- Herbicidal activity, GOSHI (GOSHI [9]; 1.000 kg/ha): 50 % inhibition
- Herbicidal activity, GOSHI (GOSHI [9]; 1.250 kg/ha): 40 % inhibition
- Herbicidal activity, ORYSA (ORYSA [10]; 0.016 kg/ha): 0 % inhibition
- Herbicidal activity, ORYSA (ORYSA [10]; 0.063 kg/ha): 30 % inhibition
- Herbicidal activity, ORYSA (ORYSA [10]; 1.000 kg/ha): 100 % inhibition
- Herbicidal activity, ORYSA (ORYSA [10]; 1.250 kg/ha): 70 % inhibition
- Herbicidal activity, PANDI (PANDI; 0.016 kg/ha): 40 % inhibition
- Herbicidal activity, PANDI (PANDI; 0.063 kg/ha): 100 % inhibition
- Herbicidal activity, PANDI (PANDI; 1.000 kg/ha): 100 % inhibition
- Herbicidal activity, PANDI (PANDI; 1.250 kg/ha): 100 % inhibition
- Herbicidal activity, SOLNI (SOLNI [11]; 0.016 kg/ha): 0 % inhibition
- Herbicidal activity, SOLNI (SOLNI [11]; 0.063 kg/ha): 0 % inhibition
- Herbicidal activity, SOLNI (SOLNI [11]; 1.000 kg/ha): 30 % inhibition
- Herbicidal activity, SOLNI (SOLNI [11]; 1.250 kg/ha): 0 % inhibition
- Herbicidal activity, SORBI (SORBI; 0.016 kg/ha): 0 % inhibition
- Herbicidal activity, SORBI (SORBI; 0.063 kg/ha): 30 % inhibition
- Herbicidal activity, SORBI (SORBI; 1.000 kg/ha): 70 % inhibition
- Herbicidal activity, SORBI (SORBI; 1.250 kg/ha): 50 % inhibition
- Herbicidal activity, TRZAW (TRZAW; 0.016 kg/ha): 0 % inhibition
- Herbicidal activity, TRZAW (TRZAW; 0.063 kg/ha): 30 % inhibition
- Herbicidal activity, TRZAW (TRZAW; 1.000 kg/ha): 100 % inhibition
- Herbicidal activity, TRZAW (TRZAW; 1.250 kg/ha): 50 % inhibition
- Herbicidal activity, ZEAMX (ZEAMX; 0.016 kg/ha): 0 % inhibition
- Herbicidal activity, ZEAMX (ZEAMX; 0.063 kg/ha): 60 % inhibition
- Herbicidal activity, ZEAMX (ZEAMX; 1.000 kg/ha): 100 % inhibition
- Herbicidal activity, ZEAMX (ZEAMX; 1.250 kg/ha): 100 % inhibition
- pest or weed control at 2 g/ha (ECHOR [12]; 0.002 kg/ha): 0%
- pest or weed control at 8 g/ha (ECHOR [12]; 0.008 kg/ha): 60%
- pest or weed control at 31 g/ha (ECHOR [12]; 0.031 kg/ha): 100%
- pest or weed control at 125 g/ha (ECHOR [12]; 0.125 kg/ha): 100%
- pest or weed control at 500 g/ha (ECHOR [12]; 0.500 kg/ha): 100%
- pest or weed control at 2 g/ha (MOOVA; 0.002 kg/ha): 0%
- pest or weed control at 8 g/ha (MOOVA; 0.008 kg/ha): 0%
- pest or weed control at 31 g/ha (MOOVA; 0.031 kg/ha): 0%
- pest or weed control at 125 g/ha (MOOVA; 0.125 kg/ha): 0%
- pest or weed control at 500 g/ha (MOOVA; 0.500 kg/ha): 0%
- plant injury at 2 g/ha (ORYSA [13]; [14]): 0%
- plant injury at 8 g/ha (ORYSA [13]; [14]): 0%
- plant injury at 31 g/ha (ORYSA [13]; [14]): 0%
- plant injury at 125 g/ha (ORYSA [13]; [14]): 20%
- plant injury at 500 g/ha (ORYSA [13]; [14]): 65%
- plant injury at 2 g/ha (ORYSA [13]; [15]): 0%
- plant injury at 8 g/ha (ORYSA [13]; [15]): 0%
- plant injury at 31 g/ha (ORYSA [13]; [15]): 100%
- plant injury at 125 g/ha (ORYSA [13]; [15]): 100%
- plant injury at 500 g/ha (ORYSA [13]; [15]): 100%
- pest or weed control at 2 g/ha (SAGPY; 0.002 kg/ha): 0%
- pest or weed control at 8 g/ha (SAGPY; 0.008 kg/ha): 0%
- pest or weed control at 31 g/ha (SAGPY; 0.031 kg/ha): 0%
- pest or weed control at 125 g/ha (SAGPY; 0.125 kg/ha): 0%
- pest or weed control at 500 g/ha (SAGPY; 0.500 kg/ha): 40%
- pest or weed control at 2 g/ha (SCPJU; 0.002 kg/ha): 0%
- pest or weed control at 8 g/ha (SCPJU; 0.008 kg/ha): 0%
- pest or weed control at 31 g/ha (SCPJU; 0.031 kg/ha): 0%
- pest or weed control at 125 g/ha (SCPJU; 0.125 kg/ha): 0%
- pest or weed control at 500 g/ha (SCPJU; 0.500 kg/ha): 0%
